Reference: paper PMC11432330, “Novel Drug-like HsrA Inhibitors Exhibit Potent Narrow-Spectrum Antimicrobial Activities against Helicobacter pylori” (International Journal of Molecular Sciences, 2024)

System: H. pylori 26695
Assay: In vivo inhibition of HsrA: RNA-Seq transcriptomic analysis of exposed cells
Assay type: cell-based, Helicobacter pylori
Conditions: for log2 Fold Change: exposed to lethal concentrations vs control
Description: Bacterial growth from three blood agar plates of H. pylori ATCC 700392 (aka 26695) incubated for 48 h at 37 °C under microaerobic conditions was aseptically resuspended in BHI + FBS and adjusted to 10^7 CFU/mL. BHI broth cultures were incubated microaerobically at 37 °C for 24 h. […] At this time, bacterial growth was stopped by adding 1.5 mL ice-cold RNA stop solution (95% absolute ethanol, 5% acid-buffered phenol) and subsequently incubated on ice. Control samples were exposed to the same amount of DMSO instead of the inhibitor. Helicobacter cells from all samples were harvested by centrifugation (4000 rpm at 4 °C for 10 min), then the pellets were quickly frozen by immersion in liquid nitrogen and stored at −80 °C.
RNA-Seq analysis was performed by GENEWIZ (Azenta Life Sciences, Leipzig, Germany). Frozen cell pellets from two biological replicates of each treatment condition were properly submitted to GENEWIZ in dry ice. RNA-Seq libraries were prepared according to standard protocols via rRNA depletion, RNA fragmentation and random priming, reverse transcription, 5’-phosphorylation and dA-tailing of cDNAs, adaptor ligation, and PCR enrichment. Once the quality of each library was confirmed, they were sequenced on an Illumina NovaSeq 6000 (Illumina, San Diego, CA, USA) with 150-bp paired-ends. Raw sequence reads were filtered to remove possible adapter sequences and nucleotides with poor quality using Trimmomatic v.0.36 [105]. The trimmed reads were subsequently mapped to the H. pylori strain 26695 reference genome NC_000915.1 available on NCBI, by using the Bowtie2 aligner v.2.2.6 [106]. Unique gene hit counts were calculated by using featureCounts from the Subread package v.1.5.2. Only unique reads that fell within the gene regions were counted. Using DESeq2 [108], a comparison of the gene expression between the control and treated groups of samples was performed. The Wald test was used to generate p-values and log2 fold changes. Genes with an adjusted p-value < 0.05 and absolute log2 fold change >1 were considered as differentially expressed genes (DEGs) for each comparison. The RNA-Seq data generated in this study have been deposited in ArrayExpress with the accession number E-MTAB-14255.

Q: With NC(=NOC(=O)Nc1ccc(Cl)cc1)c1csc([N+](=O)[O-])c1 [Ligand V, N′-{[(4-chloroanilino)carbonyl]}oxy-5-nitrothiophene-3-carboximidamide] as the compound, how does the “log2 Fold Change” value (gene HP1464) read?
A: -0.584

Q: What about the “log2 Fold Change” value (gene HP1467) of the same compound?
A: 1.322

Q: And the “log2 Fold Change HP1469” value (gene HP1469, lethal concentrations of V vs control)?
A: 0.362

Q: And the “log2 Fold Change” value (gene HP1470)?
A: 1.312

Q: And the “log2 Fold Change HP1473” value (gene HP1473, lethal concentrations of V vs control)?
A: 0.275

Q: And the “log2 Fold Change” value (gene HP1481)?
A: -0.602

Q: What about the “log2 Fold Change HP1492” value (gene HP1492, lethal concentrations of V vs control) of the same compound?
A: 0.282

Q: And the “log2 Fold Change HP1499” value (gene HP1499, lethal concentrations of V vs control)?
A: 0.340

Q: What about the “log2 Fold Change HP1501” value (gene HP1501, lethal concentrations of V vs control) of the same compound?
A: 0.305

Q: What about the “log2 Fold Change” value (gene HP1504) of the same compound?
A: 1.311

Q: And the “log2 Fold Change HP1505” value (gene HP1505, lethal concentrations of V vs control)?
A: 0.278

Q: What about the “log2 Fold Change HP1512” value (gene HP1512, lethal concentrations of V vs control) of the same compound?
A: 0.234

Q: What about the “log2 Fold Change” value (gene HP1513) of the same compound?
A: -0.489

Q: What about the “log2 Fold Change HP1521” value (gene HP1521, lethal concentrations of V vs control) of the same compound?
A: 0.260

Q: And the “log2 Fold Change” value (gene HP1537)?
A: -0.495

Q: And the “log2 Fold Change HP1539” value (gene HP1539, lethal concentrations of V vs control)?
A: 0.288

Q: And the “log2 Fold Change” value (gene HP1556)?
A: -0.480

Q: And the “log2 Fold Change HP1562” value (gene HP1562, lethal concentrations of V vs control)?
A: 0.282

Q: What about the “log2 Fold Change” value (gene HP1572) of the same compound?
A: -0.532

Q: And the “log2 Fold Change” value (gene HP1573)?
A: -0.478

Q: And the “log2 Fold Change” value (gene HPrrnA16S)?
A: 2.639

Q: And the “log2 Fold Change” value (gene acpS)?
A: -0.554

Q: What about the “log2 Fold Change adk” value (gene adk, lethal concentrations of V vs control) of the same compound?
A: 0.370

Q: And the “log2 Fold Change aroB” value (gene aroB, lethal concentrations of V vs control)?
A: 0.331

Q: What about the “log2 Fold Change ddl” value (gene ddl, lethal concentrations of V vs control) of the same compound?
A: 0.165

Q: What about the “log2 Fold Change dnaA” value (gene dnaA, lethal concentrations of V vs control) of the same compound?
A: 0.315

Q: What about the “log2 Fold Change dnaG” value (gene dnaG, lethal concentrations of V vs control) of the same compound?
A: 0.180

Q: What about the “log2 Fold Change dut” value (gene dut, lethal concentrations of V vs control) of the same compound?
A: 0.253

Q: And the “log2 Fold Change fbcH” value (gene fbcH, lethal concentrations of V vs control)?
A: 0.402

Q: And the “log2 Fold Change flgD” value (gene flgD, lethal concentrations of V vs control)?
A: 0.479

Q: What about the “log2 Fold Change flgH” value (gene flgH, lethal concentrations of V vs control) of the same compound?
A: 0.237

Q: And the “log2 Fold Change flhF” value (gene flhF, lethal concentrations of V vs control)?
A: 0.252

Q: And the “log2 Fold Change” value (gene fliQ)?
A: -0.518

Q: And the “log2 Fold Change fliR” value (gene fliR, lethal concentrations of V vs control)?
A: 0.363

Q: What about the “log2 Fold Change folE” value (gene folE, lethal concentrations of V vs control) of the same compound?
A: 0.244

Q: And the “log2 Fold Change fusA” value (gene fusA, lethal concentrations of V vs control)?
A: 0.268

Q: What about the “log2 Fold Change” value (gene gcp) of the same compound?
A: -0.507

Q: What about the “log2 Fold Change glmM” value (gene glmM, lethal concentrations of V vs control) of the same compound?
A: 0.344

Q: What about the “log2 Fold Change” value (gene gltX) of the same compound?
A: -0.588

Q: And the “log2 Fold Change gmk” value (gene gmk, lethal concentrations of V vs control)?
A: 0.172

Q: And the “log2 Fold Change groES” value (gene groES, lethal concentrations of V vs control)?
A: 0.428

Q: And the “log2 Fold Change guaA” value (gene guaA, lethal concentrations of V vs control)?
A: 0.370

Q: What about the “log2 Fold Change gyrB” value (gene gyrB, lethal concentrations of V vs control) of the same compound?
A: 0.200

Q: And the “log2 Fold Change” value (gene hemC)?
A: -0.538

Q: What about the “log2 Fold Change hypA” value (gene hypA, lethal concentrations of V vs control) of the same compound?
A: 0.375

Q: And the “log2 Fold Change infB” value (gene infB, lethal concentrations of V vs control)?
A: 0.319

Q: And the “log2 Fold Change ksgA” value (gene ksgA, lethal concentrations of V vs control)?
A: 0.343

Q: And the “log2 Fold Change” value (gene lpxB)?
A: -0.543

Q: And the “log2 Fold Change lpxK” value (gene lpxK, lethal concentrations of V vs control)?
A: 0.332

Q: What about the “log2 Fold Change mnmA” value (gene mnmA, lethal concentrations of V vs control) of the same compound?
A: 0.256

Q: What about the “log2 Fold Change motB” value (gene motB, lethal concentrations of V vs control) of the same compound?
A: 0.465

Q: What about the “log2 Fold Change mraY” value (gene mraY, lethal concentrations of V vs control) of the same compound?
A: 0.155

Q: And the “log2 Fold Change nusB” value (gene nusB, lethal concentrations of V vs control)?
A: 0.152

Q: What about the “log2 Fold Change oorC” value (gene oorC, lethal concentrations of V vs control) of the same compound?
A: 0.231

Q: What about the “log2 Fold Change” value (gene panC) of the same compound?
A: 1.338

Q: What about the “log2 Fold Change” value (gene pheT) of the same compound?
A: -0.561

Q: What about the “log2 Fold Change porA” value (gene porA, lethal concentrations of V vs control) of the same compound?
A: 0.146

Q: And the “log2 Fold Change prfB” value (gene prfB, lethal concentrations of V vs control)?
A: 0.329

Q: And the “log2 Fold Change pyrH” value (gene pyrH, lethal concentrations of V vs control)?
A: 0.243

Q: What about the “log2 Fold Change recA” value (gene recA, lethal concentrations of V vs control) of the same compound?
A: 0.430

Q: And the “log2 Fold Change” value (gene rnc)?
A: -0.477

Q: What about the “log2 Fold Change” value (gene rplQ) of the same compound?
A: -0.590

Q: What about the “log2 Fold Change” value (gene rplW) of the same compound?
A: -0.487

Q: What about the “log2 Fold Change” value (gene rplX) of the same compound?
A: -0.561

Q: And the “log2 Fold Change rpsB” value (gene rpsB, lethal concentrations of V vs control)?
A: 0.177

Q: And the “log2 Fold Change” value (gene rpsI)?
A: -0.579

Q: And the “log2 Fold Change ruvA” value (gene ruvA, lethal concentrations of V vs control)?
A: 0.457

Q: And the “log2 Fold Change ruvB” value (gene ruvB, lethal concentrations of V vs control)?
A: 0.388

Q: What about the “log2 Fold Change secD” value (gene secD, lethal concentrations of V vs control) of the same compound?
A: 0.450

Q: And the “log2 Fold Change” value (gene tRNA-Arg-4)?
A: -0.569

Q: What about the “log2 Fold Change” value (gene tRNA-Gln-1) of the same compound?
A: 1.327

Q: What about the “log2 Fold Change tRNA-Ser-1” value (gene tRNA-Ser-1, lethal concentrations of V vs control) of the same compound?
A: 0.297

Q: What about the “log2 Fold Change” value (gene tRNA-Ser-2) of the same compound?
A: 1.370

Q: What about the “log2 Fold Change tRNA-Ser-3” value (gene tRNA-Ser-3, lethal concentrations of V vs control) of the same compound?
A: 0.425

Q: And the “log2 Fold Change” value (gene tRNA-Trp-1)?
A: -0.513

Q: What about the “log2 Fold Change” value (gene tgt) of the same compound?
A: -0.523

Q: What about the “log2 Fold Change trpD” value (gene trpD, lethal concentrations of V vs control) of the same compound?
A: 0.327

Q: What about the “log2 Fold Change tsf” value (gene tsf, lethal concentrations of V vs control) of the same compound?
A: 0.474

Q: And the “log2 Fold Change uvrA” value (gene uvrA, lethal concentrations of V vs control)?
A: 0.417

Q: And the “log2 Fold Change” value (gene xseA)?
A: -0.471

Q: What about the “log2 Fold Change yajC” value (gene yajC, lethal concentrations of V vs control) of the same compound?
A: 0.146
